# Assay results from US20230183309A1 (Dana-Farber Cancer Institute, Inc., priority 2019, published 2023).
# “Also recorded” adds a separate entry of the source. Numbered stars: 1 amine (or outer) side, 2 acyl side, 3 side chain; on linkers, the order of the positions; unused ones are H or OH. Bridge positions count the residues as written; N and C are the ends. Square brackets hold non-standard residues; d marks the D form. code # = α,α-bis(4′-pentenyl)glycine, C=CCCCC(CCCC=C)(N[*:1])C(=O)[*:2]; R8 = C=CCCCCCC[C@@](C)(N)C(=O)O; S8 = C=CCCCCCC[C@](C)(N)C(=O)O; Aib = CC(C)(N)C(=O)O
# Experiments:
# human GLP-1 receptor = human GLP-1 receptor (Homo sapiens, UniProt P43220); settings: GFP-GLP-1R U2OS cells; FIG. 6A, 6B (lower dose-range 1 µM, 100 nM, 10 nM)
# Chain of human GLP-1 receptor (P43220 24-463): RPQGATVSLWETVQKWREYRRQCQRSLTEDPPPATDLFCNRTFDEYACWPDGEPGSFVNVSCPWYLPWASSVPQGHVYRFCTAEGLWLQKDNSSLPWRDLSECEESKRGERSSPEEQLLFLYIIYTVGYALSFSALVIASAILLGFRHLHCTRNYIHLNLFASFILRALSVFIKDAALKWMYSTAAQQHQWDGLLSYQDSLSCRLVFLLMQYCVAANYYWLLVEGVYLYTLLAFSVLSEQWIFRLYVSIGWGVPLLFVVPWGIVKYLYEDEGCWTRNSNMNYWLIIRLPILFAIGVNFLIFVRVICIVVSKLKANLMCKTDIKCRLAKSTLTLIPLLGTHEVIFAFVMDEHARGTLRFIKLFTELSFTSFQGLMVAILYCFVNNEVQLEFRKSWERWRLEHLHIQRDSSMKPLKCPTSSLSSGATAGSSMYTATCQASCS
# B6 mice = assay: Glucose tolerance test in fasted mice; assay type: in vivo, mouse; settings: 10 nmol/kg IP, glucose 2 g/kg IP 30 minutes later
# Method: To evaluate whether the relative proteolytic stability of SAH-GLP-1(16,23,30) translated into a functional benefit in vivo, glucose tolerance tests in mice were performed. Mice (n=8 per arm) were fasted overnight and administered the corresponding panel of peptides at 10 nmol/kg intraperitoneally followed by a glucose bolus (2 g/kg) 30 minutes later, and then serial serum glucose monitoring was performed over time.
# In vivo efficacy testing of SAH-GLP-1 peptides. Male B6 and db/db mice (JAX 000697) at 10-12 weeks of age were housed (5 mice/cage) at a constant room temperature of 24° C. on a normal day-light cycle and provided a standard diet ad libitum. After one week of acclimatization, B6 mice (n=8 per treatment arm) were fasted for 16 hours overnight and the following morning baseline blood glucose levels were measured (Onetouch), followed by intraperitoneal (IP) injection of vehicle (saline) or the indicated peptide (10 nmol/kg). Thirty minutes later, the mice were treated with a bolus IP injection of glucose (2 g/kg, 20% aqueous solution), followed by serial blood glucose monitoring at 0, 15, 30, 60, and 120 minutes. To evaluate the comparative anti-hyperglycemic effects of peptides in db/db mice (n=8 per treatment arm), vehicle (saline) or the indicated peptide (10 nmol/kg) was injected IP and blood glucose levels monitored at 0, 15, 30, 60, and 720 minutes.
# proteinase K = target: T1, proteinase K (Parengyodontium album, UniProt P06873); assay type: in vitro ADME
# T1 construct: purchased New England Biolabs
# T1 sequence (P06873 106-384): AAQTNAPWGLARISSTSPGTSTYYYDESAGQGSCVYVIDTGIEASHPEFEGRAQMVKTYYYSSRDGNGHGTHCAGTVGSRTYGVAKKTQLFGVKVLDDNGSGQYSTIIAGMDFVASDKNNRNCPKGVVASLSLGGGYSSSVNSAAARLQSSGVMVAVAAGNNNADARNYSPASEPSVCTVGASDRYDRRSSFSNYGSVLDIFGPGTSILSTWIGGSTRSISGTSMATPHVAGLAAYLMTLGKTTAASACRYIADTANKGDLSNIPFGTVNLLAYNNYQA
# [1] = mouse
# Method: Plasma Stability Testing. Peptide stability was tested in freshly drawn mouse plasma collected in lithium heparin tubes. Peptide plasma incubations were set up with 500 µL of plasma spiked with 10 µM of the individual peptides. Samples were gently shaken in an orbital shaker at 37° C., and 20 µL aliquots were removed at 0, 5, 15, 30, 60, 120, and 200 minutes and added to 150 µL of a mixture containing 50% water/50% acetonitrile to stop further degradation of the peptides. The samples were allowed to sit on ice for the duration of the assay and then transferred to a MultiScreen Solvinert 0.45 µm low-binding hydrophilic PTFE plate (Millipore). The filtrate was directly analyzed by LC/MS/MS using a Thermo BetaSil column, 2.1 × 50 mm, 5 µm. […] The percentage of remaining peptide was determined by the decrease in chromatographic peak area and log transformed to calculate the half-life.
# [2] = target: GLP-1R expressed on CHO-K1 cells (cAMP Hunter eXpress GLP1R CHO-K1 GPCR Assay, Eurofins, 95-0062E2CP2S) (UniProt P43220 24-463); assay: cell-based or functional assay
molecule,measurement,setting,value
"HGEGTFTSD8SSYLEG#AAKEFIZWLVKGR (H-HGEGTFTSD[R8]SSYLEG[code #]AAKEFI[S8]WLVKGR-NH2; staple 10-17, 17-24) [SAH-GLP-1(A8G)(16,23,30)]",GLP-1R internalization activity compared with the corresponding unstapled / wild-type GLP-1 peptide,human GLP-1 receptor,more active
CC[C@H](C)[C@H](NC(=O)[C@H](Cc1ccccc1)NC(=O)[C@H](CCC(=O)O)NC(=O)[C@H](CCCCN)NC(=O)[C@H](C)NC(=O)[C@H](C)NC(=O)[C@H](CCC(N)=O)NC(=O)CNC(=O)[C@H](CCC(=O)O)NC(=O)[C@H](CC(C)C)NC(=O)[C@H](Cc1ccc(O)cc1)NC(=O)[C@H](CO)NC(=O)[C@H](CO)NC(=O)[C@@H](NC(=O)[C@H](CC(=O)O)NC(=O)[C@H](CO)NC(=O)[C@@H](NC(=O)[C@H](Cc1ccccc1)NC(=O)[C@@H](NC(=O)CNC(=O)[C@H](CCC(=O)O)NC(=O)[C@H](C)NC(=O)[C@@H](N)Cc1c[nH]cn1)[C@@H](C)O)[C@@H](C)O)C(C)C)C(=O)N[C@@H](C)C(=O)N[C@@H](Cc1c[nH]c2ccccc12)C(=O)N[C@@H](CC(C)C)C(=O)N[C@H](C(=O)N[C@@H](CCCCN)C(=O)NCC(=O)N[C@@H](CCCNC(=N)N)C(N)=O)C(C)C [GLP-1],control of induced hyperglycemia in glucose tolerance test,B6 mice,least effective
"CC[C@H](C)[C@H](NC(=O)[C@H](Cc1ccccc1)NC(=O)[C@H](CCC(=O)O)NC(=O)[C@H](CCCCNC(=O)COCCOCCNC(=O)COCCOCCNC(=O)CC[C@H](NC(=O)CCCCCCCCCCCCCCCCC(=O)O)C(=O)O)NC(=O)[C@H](C)NC(=O)[C@H](C)NC(=O)[C@H](CCC(N)=O)NC(=O)CNC(=O)[C@H](CCC(=O)O)NC(=O)[C@H](CC(C)C)NC(=O)[C@H](Cc1ccc(O)cc1)NC(=O)[C@H](CO)NC(=O)[C@H](CO)NC(=O)[C@@H](NC(=O)[C@H](CC(=O)O)NC(=O)[C@H](CO)NC(=O)[C@@H](NC(=O)[C@H](Cc1ccccc1)NC(=O)[C@@H](NC(=O)CNC(=O)[C@H](CCC(=O)O)NC(=O)C(C)(C)NC(=O)[C@@H](N)Cc1cnc[nH]1)[C@@H](C)O)[C@@H](C)O)C(C)C)C(=O)N[C@@H](C)C(=O)N[C@@H](Cc1c[nH]c2ccccc12)C(=O)N[C@@H](CC(C)C)C(=O)N[C@H](C(=O)N[C@@H](CCCNC(=N)N)C(=O)NCC(=O)N[C@@H](CCCNC(=N)N)C(=O)NCC(=O)O)C(C)C [semaglutide, reference compound]",proteolysis by proteinase K (in words),"proteinase K; identical conditions as FIG. 7A, FIG. 7B",rapidly proteolyzed; also recorded: rapid proteolysis
"CC[C@H](C)[C@@H]1NC(=O)[C@H](Cc2ccccc2)NC(=O)[C@H](CCC(=O)O)NC(=O)[C@H](CCCCN)NC(=O)[C@H](C)NC(=O)[C@H](C)NC(=O)C2(CCCC=CCCCCCC[C@@](C)(NC(=O)[C@H](CC(=O)O)NC(=O)[C@H](CO)NC(=O)[C@@H](NC(=O)[C@H](Cc3ccccc3)NC(=O)[C@@H](NC(=O)CNC(=O)[C@H](CCC(=O)O)NC(=O)C(C)(C)NC(=O)[C@@H](N)Cc3c[nH]cn3)[C@@H](C)O)[C@@H](C)O)C(=O)N[C@@H](CO)C(=O)N[C@@H](CO)C(=O)N[C@@H](Cc3ccc(O)cc3)C(=O)N[C@@H](CC(C)C)C(=O)N[C@@H](CCC(=O)O)C(=O)NCC(=O)N2)CCCC=CCCCCCC[C@@](C)(C(=O)N[C@@H](Cc2c[nH]c3ccccc23)C(=O)N[C@@H](CC(C)C)C(=O)N[C@H](C(=O)N[C@@H](CCCCN)C(=O)NCC(=O)N[C@@H](CCCNC(=N)N)C(N)=O)C(C)C)NC1=O (stereo partly drawn) [SAH-GLP-1(16,23,30), HJEGTFTSD8SSYLEG#AAKEFIZWLVKGR]",improvement of proteinase K half-life compared to the singly stapled peptides,proteinase K,2-7 fold
same,improvement of proteinase K half-life compared to wild-type / control peptide,proteinase K,over 20 fold
same,half-life,"proteinase K; proteinase K, 50 mM Tris-HCl, pH 7.4, peptides have the A8Aib substitution, read-out: t½ (half-life), proteinase K digestion, intact peptide by LCMS",3.67 h
same,plasma half-life relative to semaglutide,[1],nearly double
same,half-life,[1]; plasma,5.33 h
"H-H[Aib]EGTFTSD[R8]SSYLEG[code #]AAKEFI[S8]WLVKGR-NH2 (staple 10-17, 17-24) [SAH-GLP-1(16,23,30) A8J]","cAMP induction (cAMP Hunter eXpress luminescence assay), EC50",[2],0.16 nM
